Source: EP0417209B1, “COMPOSITIONS AND METHODS FOR ADMINISTERING […] ACTIVE COMPOUNDS” (priority 1988, dated 1990)
Where “and” joins values, the source holds several entries; their conditions need not be identical. Equal entries are not always repeated. Values belong to the compound of their own block, whether it stands above or below them.

What was measured:
[1] = tested on: movement disorders; test: Supplementation of dogs with chronic movement disorders; clinical evaluation and owner's report; assay type: in vivo; conditions: given orally
Description: One hundred-eighty dogs of varying breed and age were fed 3 x 30 mgs/kg of the product of Example 1. All of these dogs suffered movement disorders.
The effect was measured seven days after supplementation and then again after six weeks. Last evaluation was after more than six months.
A number of different ailments were treated, both acute and chronic. In acute illness where symptoms are rapidly changing, one finds it hard to distinguish between the effect of supplementation and other factors.
Animals with the following chronic ailments were chosen: joint-injuries with secondary permanent changes, arthrosis, spondylosis, hip dysplasia, older dico-prolapse with secondary permanent changes, muscle-atrophy as a result of funtio laesa and senile wear-changes in support and motion-systems.
One hundred dogs qualify under the above criteria. Age or breed was not taken into consideration in this report.

[2] = Plasma Piroxicam after gavage, 3-day calcium threonate pretreatment (Example 13); assay type: in vivo, Wistar derived Albino rats; conditions: rat, po, 0.6 mg/kg, read-out: Piroxicam Plasma Concentration, average (X)
Description: Ten Wistar derived Albino rats, male (420-456 gms), were acclimated for seven days prior to beginning the study. During this period the rats were fed Purina(R) Rodent Chow, watered ad lib and housed in self-flushing stainless-steel cages.
The rats were randomly assigned to two groups of five each. Group A rats were gavaged daily for 3 days with 1.0 ml distilled water prior to beginning the study. Group AM rats were gavaged daily with 15 mg/kg/ml of calcium threonate for 3 days also. Threonate dosages were corrected for increases in body weights daily in insure the 15 mg/kg dose was maintained.
On day 4 the Group A rats were gavaged with Piroxicam at 0.6 mg/kg and group AM rats with 0.6 mg/kg Piroxicam and 15 mg/kg threonate. Plasma samples were taken at 4, 6, 8 and 10 hrs. post-dosing for plasma Piroxicam analysis.
Selective HPLC was used to analyze Piroxicam. The data was analyzed statistically by the SAS procedure. The ANOVA repeated measures procedure was used to determine differences in plasma Piroxicam concentration between groups.
The average (X) values for each group at each time period are given.

[3] = Plasma Piroxicam after gavage, combined administration with calcium threonate (Example 12); assay type: in vivo, Wistar derived albino rats; conditions: 0.6 mg/kg; for Plasma Piroxicam Concentration: listed as U.S.P. piroxicam; for concentration at 4 h: 4 hours after dosing
Description: Ten Wistar derived albino rats, male (375-411 gms), were acclimated for seven days prior to beginning the study. During this period the rats were fed Purina(R) Rodent Chow, watered ad lib and housed in self-flushing stainless-steel cages.
The rats were randomly assigned to two groups of five each and placed in Nalgene(R) cages. Group A received U.S.P. Piroxicam at 0.6 mg/kg, and Group AM received U.S.P. Piroxicam at 0.6 mg/kg plus calcium threonate at 15 mg/kg by gavage. Plasma samples were taken at 4, 6, 8 and 10 hours after dosing for plasma Piroxicam analysis.
Selective HPLC was used to analyze Piroxicam and the data analyzed via SAS. The ANOVA repeated measures procedure was used to determine differences in plasma Piroxicam concentrations between groups.
The average values (X) for each group and time are given. Figure 3 is the plasma profile of the data in Table 4.

[4] = cited from earlier work
[5] = design: species or system men; conditions: in vivo
Text: The following example describes clinical tests comparing the product of Example 1 (test material) with L-ascorbic acid and citric acid (placebo), measuring intra-cellular and serum ascorbate levels, urinary ascorbate output and urinary oxalate excretion at various times after ingestion of standard doses of the test, L-ascorbic acid and placebo.
Twelve men, ages 27 to 45, were studied.
All were instructed that they should be on a low Vitamin C diet for one week prior to the study (no citrus products and no large amounts of green leafy vegetables).
Following overnight fast, blood and 24-hour urine samples were taken. White blood cell and 24-hour urinary ascorbate and oxalate levels were determined and correlated with serum ascorbate levels.
The 12 men were divided into three groups, and were given the following supplements: • (a) Test Group: 4000 MG* per day of the product Ex. 1. • (b) Ascorbate Group: 3000 MG of L-ascorbic per day. • (c) Citric Acid Group: 3000 MG of citric acid per day. *4000 MG is equivalent in ascorbate (iodine test) to 3000MG L-ascorbic acid.
All 12 continued on a low Vitamin C diet. Blood samples were taken at 0, 4, 8 and 24 hours after morning ingestion of the designated supplements. Urinary 24-hour ascorbate and oxalate levels were determined.
After a wash-out period (varying from two days to several days, due to job situation of participants), the groups were switched to another supplement, as follows: • (a) Test group to citrate group. • (b) Citrate group to ascorbate group. • (c) Ascorbate group to test group.
Supplements were taken at the same level (4000 MG of Ex. 1 product, 3000 MG of L-ascorbic and 3000 MG of citric acid) by all three groups. Blood samples were again drawn at 0, 4, 8 and 24 hours from time of ingestion. A 24-hour urine was also collected by all 12 participants at the end of the period. Again, all specimens were analyzed for their respective concentration of ascorbate and oxalate levels.
The analytical procedures utilized are described in: Clinical Chemistry, Principles and Techniques, edited by Richard J. Henry, Donald D. Cannon and James W. Windelman, Harper and Row, 1974 p. 1393-1398.
Standard Method of Clinical Chemistry, J. S. Roe, edited by Seligson D. New York, Academic Press, 1961, Vo. 3, p. 35.
In the quantitation of 24-hour urine oxalate, an aliquot of urine is shaken with an adsorbent which selectively binds the oxalate. The extracted urine is discarded and the oxalate is eluted from the adsorbent with dilute alkali.
Oxalate is oxidized to hydrogen peroxide and carbon dioxide by oxalate oxidase. The hydrogen peroxide reacts with 3-methyl-2-benzothiozolinone hydrazone (MBTH) and 3 (dimethylamino) benzoic acid (DMAB) in the presence of peroxidase to yield an indamine dye with a maximum absorbance at 590 NM.

[6] = tested on: 3T3 mouse fibroblasts
Description: A control group was incubated with Ringer's as a control.
(5 ul of 14C-L ascorbic acid was added, 10.0 mCi/mmol, 0.05 mCi/ml).
The flasks were then washed with 4 ml HBSS(-) and then were trypsinized with 0.1 ml trypsin-EDTA for 5 minutes. The cells were resuspended in 4 ml ice cold HBSS(-) to stop the enzymatic reaction. The cells were centrifuged for 10 minutes at 1000 G. The cells were then washed and resuspended in 4 ml HBSS(-). The cells were again centrifuged (10 min, 1000G), resuspended in 1.0 ml distilled H2O and sonicated for 90 seconds.
0.5 ml of each sample was used for counting ^14C and 0.5 ml was used for protein analysis using the Bradford method.

[7] = design: species or system Wistar derived albino rats; conditions: rat, in vivo
Description: Sixteen Wistar derived albino rats, eight male (242-333 gms) and eight female (295-345 gms) were acclimated for seven days prior to beginning this study. During this period the rats were fed Purina(R) Rodent Chow, watered ad lib and housed in self-flushing stainless-steel cages.
The rats were randomly assigned to two groups of eight each (4 males and 4 females) and placed in metabolism cages. […] Blood samples were taken at 1, 2, 3 and 4 hours after dosing for serum salicylate analysis. Urine was collected if produced at the same time periods for salicylate analysis also. In an effort to maximize urine output the rats were given additional water at 1, 2, 3 and 4 hours by gavage (3 ml).
Blood and urine were collected and analyzed according to the method of Natleson. [Natelson, S. Techniques of Clinical Chemistry, ed. 3. p. 649, Charles C. Thomas, Pub. (1971)]. The study was terminated after the 4 hour collection time.
All statistics were calculated via Statistical Analysis System (SAS Institute, Inc., Box 8000, Cary, NC, 27511) software. The ANOVA (repeated measures model) procedure was used to determine differences in salicylate concentrations between groups.
The average values (X) and standard deviation (SD) for each group and time are given. Figure 1 is a histogram presentation of the data in Table 2. The significance level (P) of the differences between the two groups at each sample time in salicylate concentration in serum are given next to each set of histograms. Figure 2 is the serum salicylate profile over time for both groups of rats, standard deviation bars are included. The initial uptake rate (gastrointestinal) is calculated from the linearized curve in the first hour after dosing. Urine salicylate data is not presented in detail but will be discussed below. The groups are not broken down into male and female because there is no significant difference in the serum salicylate related to the sex of the animal.

Structure (SMILES): O=C1O[C@H]([C@@H](O)CO)C(O)=C1O [calcium-ascorbate]
symptomatic relief of chronic deforming changes in the joint and skeleton system [1]: Neither calcium-ascorbate alone nor L-ascorbic acid alone give such relief

concentration at 4 h ([2]; 4 hrs post-dosing on day 4, group average): 1300 ng/mL | concentration at 6 h ([2]; 6 hrs post-dosing on day 4, group average): 1300 ng/mL | concentration at 8 h ([2]; 8 hrs post-dosing on day 4, group average): 1100 ng/mL | concentration at 10 h ([2]; 10 hrs post-dosing on day 4, group average): 900 ng/mL | Plasma Piroxicam Concentration ([3]; 8 hours after dosing, individual rat, 480 min): 1.9 µg/mL and 1.8 µg/mL and 1.6 µg/mL | Plasma Piroxicam Concentration ([3]; 10 hours after dosing, individual rat, 600 min): 1.4 µg/mL and 1.7 µg/mL and 2.0 µg/mL | concentration at 4 h ([3]; rat, plasma, po, group average, read-out: Plasma Piroxicam Concentration, average (X)): 1800 ng/mL | concentration at 4 h ([3]; rat, plasma, po, piroxicam 0.6 mg/kg (AM: plus threonate 15 mg/kg), individual rat, read-out: Plasma Piroxicam Concentration): 2200 ng/mL | concentration at 6 h ([3]; rat, plasma, po, 6 hours after dosing, group average, read-out: Plasma Piroxicam Concentration, average (X)): 1700 ng/mL | concentration at 8 h ([3]; rat, plasma, po, 8 hours after dosing, group average, read-out: Plasma Piroxicam Concentration, average (X)): 1800 ng/mL | concentration at 8 h ([3]; rat, plasma, po, 8 hours after dosing, individual rat, read-out: Plasma Piroxicam Concentration): 1700 ng/mL | concentration at 10 h ([3]; rat, plasma, po, 10 hours after dosing, group average, read-out: Plasma Piroxicam Concentration, average (X)): 1800 ng/mL | concentration at 10 h ([3]; rat, plasma, po, 10 hours after dosing, individual rat, read-out: Plasma Piroxicam Concentration): 2000 ng/mL
Structure (SMILES): CN1C(C(=O)Nc2ccccn2)=C(O)c2ccccc2S1(=O)=O [Prioxicam]

Structure (SMILES): CC1=C(CC(=O)O)c2cc(F)ccc2/C1=C\c1ccc([S+](C)[O-])cc1 (stereo not shown) [Sulindac]
pKa [4]: 4.7

7th Day Urine Ascorbate [5]: 459 MG/24 Hour | 7th Day Urine Ascorbate % Change [5]: 4583% | 24 Hour Urine Ascorbate [5]: 314.5 MG/24 Hour | 24 Hour Urine Ascorbate % Change [5]: 2760.6% | 24th Hour Urine Oxalate [5]: 63.8 MG/24 Hour | 24th Hour Urine Oxalate % Change [5]: 162%
Structure (SMILES): O=C1O[C@H]([C@@H](O)CO)C(O)=C1O [L-ascorbic, L-ascorbic acid]

Structure (SMILES): CO[C@@]1(NC(=O)Cc2cccs2)C(=O)N2C(C(=O)O)=C(COC(N)=O)CS[C@@H]21 [Cefoxitin]
pKa [4]: 2.2

Structure (SMILES): Cc1ccc(Cl)c(Nc2ccccc2C(=O)O)c1Cl [Meclofenamic Acid]
pKa [4]: 4.0

Structure (SMILES): O=C(O)[C@H](O)[C@@H](O)CO [Calcium-L-Threonate, calcium L-threonate]
uptake of 14C into the cells, average ([6]; average of three flasks): 1.19 DPM/ug | Uptake Ratio, average ([6]; average of three flasks, relative to Ringer's control): 1.86 | uptake of 14C into the cells ([6]; single flask, 100 mg% calcium L-threonate 1 hour at 37°C, then 1.25 mg% ascorbic acid 20 minutes): 0.835 DPM/ug and 1.341 DPM/ug and 1.384 DPM/ug | Uptake Ratio ([6]; single flask, relative to average Ringer's control): 1.30 and 2.09 and 2.16

elimination rate [7]: 1.30 mg/h | uptake rate [7]: 4.40 mg/h | Urine salicylate ([7]; 60 min): approximately 9.1 mg%
Structure (SMILES): CC(=O)Oc1ccccc1C(=O)O [Aspirin]

Structure (SMILES): C=CCOc1ccc(CC(=O)O)cc1Cl [Alclofenac]
pKa [4]: 4.6
